The target of one assay is T1, Casein Kinase 1 (Rattus norvegicus, UniProt Q06486).
T1 construct: a protein truncation at amino acid 318 of the C-terminal portion of the rat CK1 delta isoform; purchased New England Biolabs, Beverly, Mass; 6030; host or cells: E. coli
T1 sequence (Q06486 1-317 limits assumed): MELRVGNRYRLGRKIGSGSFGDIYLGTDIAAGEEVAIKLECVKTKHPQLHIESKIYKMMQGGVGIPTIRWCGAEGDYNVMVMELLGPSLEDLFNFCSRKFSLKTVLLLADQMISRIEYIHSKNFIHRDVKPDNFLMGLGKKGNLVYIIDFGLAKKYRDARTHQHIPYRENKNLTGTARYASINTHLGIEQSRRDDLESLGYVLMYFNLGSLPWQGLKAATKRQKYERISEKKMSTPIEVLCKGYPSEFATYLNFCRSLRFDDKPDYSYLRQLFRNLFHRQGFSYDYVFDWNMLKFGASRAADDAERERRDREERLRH
The experiment in a line: Biotinylated Peptide Substrate Assay, Casein Kinase 1. It is filed as biochemical. Here is the method: (§1) Assays to test inhibition of a compound for other kinases were preformed using methods that measure the amount of phosphorylation of a biotinylated peptide substrate. Biotinylated peptide substrates were selected from the literature as appropriate for the enzyme being evaluated.
(§2) A kinase reaction mix was prepared in 50 mM Tris-HCl pH=8, 10 mM MgCl2, 0.1 mM Na3VO4, 1 mM DTT, 10 μM ATP, 0.25-1 μM biotinylated peptide substrate, 0.2-0.8 μCuries per well ^33P-γ-ATP (2000-3000 Ci/mmol). Assay conditions vary slightly for each protein kinase, for example, insulin receptor kinase requires 10 mM MnCl2 for activity and Calmodulin-dependent protein kinase requires calmodulin and 10 mM CaCl2. The reaction mixture was dispensed into the wells of a streptavidin coated Flashplate and 1 μL drug stock in 100% DMSO was added to a 100 μL reaction volume resulting in a final concentration of 1% DMSO in the reaction. Enzyme was diluted in 50 mM Tris-HCl pH=8.0, 0.1% BSA and added to each well. The reaction was incubated for one hour at 30° C. in the presence of compound. After one hour the reaction mix was aspirated from the plate and the plate was washed with PBS containing 100 mM EDTA. The plate was read on a scintillation counter to determine ^33P-γ-ATP incorporated into the immobilized peptide. Test compounds were assayed in duplicate at 8 concentrations (100 uM, 10 uM, 1 uM, 100 nM, 10 nM, 1 nM, 100 pM, 10 pM). A maximum and minimum signal for the assay was determined on each plate.
(§3) The IC50 was calculated from the dose response curve of the percent inhibition of the maximum signal in the assay according to the formula:
(§4) % Inhibition=((MS−BS)/(TCS−BS))×100%
(§5) where MS=Maximum Signal, BS=Background Signal, TCS=Test Compound Signal. The percent inhibition was graphed against the log concentration of the test compound. Known inhibitor compounds as appropriate references for the kinase being assayed were also included on each plate.
(§6) VEGF-R (vascular endothelial growth factor receptor-2) is a fusion protein containing a polyhistidine tag at the N-terminus followed by amino acids 786-1343 of the rat VEGF-R2 kinase domain (GenBank Accession #U93306). Protein Kinase A is the catalytic subunit of cAMP dependent protein kinase-A purified from bovine heart (Upstate Biotech, Lake Placid, N.Y., Cat#14-114). CDK1 (cyclin dependent kinase 1) is isolated from insect cells expressing both the human CDK1 catalytic subunit and its positive regulatory subunit cyclin B (New England Biolabs, Beverly, Mass., Cat. #6020). Casein Kinase-1 is a protein truncation at amino acid 318 of the C-terminal portion of the rat CK1 delta isoform produced in E.coli (New England Biolabs, Beverly, Mass., Cat. #6030). […]

Another assay deals with T2, Calmodulin Kinase 2 (Rattus norvegicus, UniProt P11275).
T2 construct: purchased New England Biolabs, Beverly, Mass; 6060; host or cells: insect cells
The assay can be described thus: Biotinylated Peptide Substrate Assay, Calmodulin Kinase 2. It is filed as biochemical. Here is the method: as §1, §2, §3, §4, §5, §6

In another assay the target is T3, Map kinase ERK-2 (Rattus norvegicus, UniProt P63086).
T3 construct: polyhistidine (N); purchased BIOMOL, Plymouth Meeting, Pa; SE-137; host or cells: E. coli
T3 sequence (P63086 whole entry): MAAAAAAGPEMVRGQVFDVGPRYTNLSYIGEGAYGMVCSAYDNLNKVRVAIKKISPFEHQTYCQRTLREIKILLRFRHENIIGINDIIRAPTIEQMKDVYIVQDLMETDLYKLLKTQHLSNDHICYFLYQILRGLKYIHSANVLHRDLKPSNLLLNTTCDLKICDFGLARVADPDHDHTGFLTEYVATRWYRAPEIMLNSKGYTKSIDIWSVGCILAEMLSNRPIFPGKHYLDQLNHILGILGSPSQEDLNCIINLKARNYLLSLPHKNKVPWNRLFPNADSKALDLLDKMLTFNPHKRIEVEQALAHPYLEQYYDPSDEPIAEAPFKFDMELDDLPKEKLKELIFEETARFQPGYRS
The assay can be described thus: Biotinylated Peptide Substrate Assay, Map kinase ERK-2. The class given is biochemical. On the procedure:
as §1, §2, §3, §4, §5, §6

Another assay relates to L6 muscle cells. The assay can be described thus: Cell-Based GSK 3-β Assay (glycogen content of L6 muscle cells). Conditions: for 14C-Glucose Incorporation (dpm): L6 cells, 2 hours, 0.0 μM control Cpd 1 1640, Cpd 2 2078; for glycogen synthesis in L6 skeletal muscle cells: upon exposure to compound, result in words. Here is the method:
Glycogen content of L6 muscle cells was measured according to the method described in Berger and Hayes, Anal. Biochem., 1998, 261, 159-163.
Briefly, L6 cells were serum starved overnight in alpha-MEM containing 0.1%. On the following day, cells were washed three times with 300 μL KRPH buffer (150 mM NaCl, 5 mM KCl, 2.9 mM Na2HPO4, 1.25 mM MgSO4, 1.2 mM CaCl2, 10 mM HEPES, pH 7.4) and labeled with 200 μL alpha-MEM containing 5.5 mM ^14C-Glucose (0.1 μCi) in the presence of vehicle (DMSO) or compounds. After 2 hours, cells were washed three times with ice-cold PBS and glycogen was precipitated for 2 hours using ice-cold 66% EtOH. Precipitated glycogen was then washed three times with ice-cold 66% EtOH and ^14C-glycogen was quantified using a TopCount (Packard).
Compounds were tested in separate experiments at the dose levels shown. Where shown, the 0.0 μM dose was used as a control.

The target in the next assay is PKC α (Homo sapiens, UniProt P17252). The experiment in a line: Protein Kinase C Scintillation Proximity Assay (SPA), PKC-α. It is filed as biochemical. Set-up: purchased PanVera, Madison Wis; host or cells: baculovirus expression vector. To be noted: inhibition value, recombinant human isozyme, 1 μM ATP. Here is the method:
The binding activity of a compound for Protein Kinase C (PKC) was assessed using a homogeneous Scintillation Proximity Assay according to the procedure below.
The reaction was incubated for 15 min at 30° C. Reactions were terminated by the addition of streptavidin-coated SPA beads (Amersham) in a solution containing 1 mM EGTA, 10 mM EDTA and 100 μM ATP. Beads were allowed to settle overnight and the plates read in a Wallac MICROBETA scintillation counter (PerkinElmer Life sciences, Wellesley, Mass.).
(In general: Scintillation proximity formats need no separation of bound from free tracer.)

A value given as a limit tells only on which side of the number the result lay.

Take `O=C1NC(=O)C2=C1c1cn(c3ncccc13)CCOCCOCCOCCn1cc2c2cccnc21` [Cpd 1]: the IC50 against Casein Kinase 1, at Calmodulin Kinase 2 and against Map kinase ERK-2 was greater than 10 µM each time. Besides, the “14C-Glucose Incorporation (dpm)” value is recorded as 1898 dpm with L6 muscle cells (dose 1 μM), 1958 dpm in the assay on L6 muscle cells (dose 3 μM) and 2426 dpm with L6 muscle cells (dose 10 μM). Also, the “glycogen synthesis in L6 skeletal muscle cells” value in the assay on L6 muscle cells is “increased glycogen synthesis”.
With `O=C1NC(=O)C2=C1c1cn(c3ncccc13)CCOCCOCCOCCOCCn1cc2c2cccnc21` [Cpd 2], the IC50 at Casein Kinase 1, at Calmodulin Kinase 2 and on Map kinase ERK-2 was greater than 10 µM in each case. Further, the “14C-Glucose Incorporation (dpm)” value in the assay on L6 muscle cells (dose 1 μM) was determined as 2224 dpm; with L6 muscle cells (dose 3 μM), 2518 dpm; in the assay with L6 muscle cells (dose 10 μM), 2806 dpm. Besides, the “glycogen synthesis in L6 skeletal muscle cells” value with L6 muscle cells was “increased glycogen synthesis”.
As to `O=C1NC(=O)C2=C1c1cn(c3ccccc13)CCOCCOCCn1cc2c2cccnc21` [Cpd 10], the IC50 against Casein Kinase 1 is greater than 10 µM; against Calmodulin Kinase 2 it was greater than 10 µM; against Map kinase ERK-2, greater than 10 µM; at PKC α, 5.36 µM.
`O=C1NC(=O)C2=C1c1cn(c3ccccc13)CCOCCOCCOCCn1cc2c2cccnc21` [Cpd 11]: the IC50 against Casein Kinase 1 was greater than 10 µM; against Calmodulin Kinase 2 it was greater than 10 µM; against Map kinase ERK-2, greater than 10 µM; at PKC α, 1.21 µM.

In general, IC50 refers to the midpoint of a concentration-inhibition curve.

Values taken from patent US6828327B2, “Macroheterocylic compounds useful as kinase inhibitors” (Ortho-McNeil Pharmaceutical, Inc., priority 2000, dated 2004).
